Test results: patent US6399782B1, “Benzimidazole inhibitors of fructose 1,6-bisphosphatase” (Metabasis Therapeutics, Inc., priority 1997, dated 2002)
Structures can show the parent of a compound that is named as a salt.

| Compound | melting point |
| --- | --- |
| CC(C)Cn1c(-c2ccc(P(=O)(O)O)o2)nc2c(N)c(F)cc(CCCN(C)C)c21 (as salt: hydrobromid) [Compound 12.84, 4-Amino-5-fluoro-7-(3-N,N-dimethylpropylamine)-1-isobutyl-2-(2-phosphono-5-furanyl)benzimidazole hydrobromide salt] | 208 to 212 °C (dec.) |
| Cc1cc(C)c2nc(-c3ccc(P(=O)(O)O)o3)n(CC(C)C)c2c1 (hydrate or solvate) [Compound 13.85, 1-Isobutyl-4,6-dimethyl-2-(2-phosphono-5-furanyl)benzimidazole] | 209 to 212 °C |
| CC(C)Cn1c(-c2ccc(P(=O)(O)O)o2)nc2c(N)c(F)cc(-c3ccccc3)c21 [Compound 12.67, 4-Amino-7-phenyl-5-fluoro-1-isobutyl-2-(2-phosphono-5-furanyl)benzimidazole] | 240 to 241 °C (dec.) |
| CC(C)Cn1c(-c2ccc(P(=O)(O)O)o2)nc2c(N)c(F)cc(-c3ccc(F)cc3)c21 [Compound 12.68, 4-Amino-7-p-fluorophenyl-5-fluoro-1-isobutyl-2-(2-phosphono5-furanyl)benzimidazole] | 239 to 240 °C (dec.) |
| CC(C)Cn1c(-c2ccc(P(=O)(O)O)o2)nc2cc(Cl)c(Cl)cc21 [Compound 13.44, 5,6-Dichloro-1-isobutyl-2-(2-phosphono-5-furanyl)benzimidazole] | 225 to 227 °C |
| Cc1c(Br)cc2c(nc(-c3ccc(P(=O)(O)O)o3)n2CC(C)C)c1C [Compound 13.53, 4,5-Dimethyl-6-bromo-1-isobutyl-2-(2-phosphono-5-furanyl)benzimidazole] | 205 to 209 °C |
| Cc1cc(C)c2c(c1)nc(-c1ccc(P(=O)(O)O)o1)n2CC(C)C (hydrate or solvate) [Compound 13.87, 1-Isobutyl-5,7-dimethyl-2-(2-phosphono-5-furanyl)benzimidazole] | 196 to 200 °C |
| CC(C)Cn1c(-c2ccc(P(=O)(O)O)o2)nc2c(N)c(F)cc(C3CC3)c21 [Compound 12.66, 4-Amino-7-cyclopropyl-5-fluoro-1-isobutyl-2-(2-phosphono-5-furanyl)benzimidazole] | 250 to 255 °C (dec.) |
| CC(C)Cn1c(-c2ccc(P(=O)(O)O)o2)nc2cc(F)c([N+](=O)[O-])c(Br)c21 [Compound 13.68, 1-Isobutyl-5-fluoro-6-nitro-7-bromo-2-(2-phosphono-5-furanyl)benzimidazole] | 161 to 165 °C |
| O=P(O)(O)c1ccc(-c2nc3cc(Cl)c(Cl)cc3n2CC2CC2)o1 [Compound 13.45, 5,6-Dichloro-1-cyclopropylmethyl-2-(2-phosphono-5-furanyl)benzimidazole] | 180 to 210 °C |
| CC(C)Cn1c(-c2ccc(P(=O)(O)O)o2)nc2c(Br)cc(Br)cc21 [Compound 13.43, 4,6-Dibromo-1-isobutyl-2-(2-phosphono-5-furanyl)benzimidazole] | 150 to 210 °C |
| Nc1c(Br)c(Cl)c(Cl)c2nc(-c3ccc(P(=O)(O)O)o3)[nH]c12 [Compound 12.58, 4-Amino-5-bromo-6,7-dichloro-2-(2-phosphono-5-furanyl)benzimidazole] | 224 to 225 °C |
| CC(=O)Nc1c(F)cc2nc(-c3ccc(P(=O)(O)O)o3)n(CC(C)C)c2c1Br [Compound 13.76, 1-Isobutyl-5-fluoro-6-acetamido-7-bromo-2-(2-phosphono-5-furanyl)benzimidazole] | 217 to 221 °C (dec.) |
| Cc1c(C)c(C)c2[nH]c(-c3ccc(P(=O)(O)O)o3)nc2c1C [Compound 13.82, 4,5,6,7-Tetramethyl-2-(2-phosphono-5-furanyl)benzimidazole] | 202 to 206 °C |
| CCCc1ccc2c(nc(-c3ccc(P(=O)(O)O)o3)n2CC(C)C)c1N [Compound 12.60, 4-Amino-5-propyl-1-isobutyl-2-(2-phosphono-5-furanyl)benzimidazole] | 207 to 210 °C |
| CCc1cc(F)c(N)c2c1nc(-c1ccc(P(=O)(O)O)o1)n2CC(C)C [Compound 12.65, 7-Amino-4-ethyl-6-fluoro-1-isobutyl-2-(2-phosphono-5-furanyl)benzimidazole] | 249 to 250 °C |
| NCCCCn1c(-c2ccc(P(=O)(O)O)o2)nc2ccc(Cl)cc21 (hydrate or solvate) [Compound 13.95, 1-(4-Aminobutyl)-6-chloro-2-(2-phosphono-5-furanyl)benzimidazole] | 250 to 252 °C (dec.) |
| C=Cc1cc(F)c(N)c2nc(-c3ccc(P(=O)(O)O)o3)n(CC(C)C)c12 [Compound 12.70, 4-Amino-7-vinyl-5-fluoro-1-isobutyl-2-(2-phosphono-5-furanyl)benzimidazole] | 238 to 242 °C |
| O=P(O)(O)c1ccc(-c2nc3ccccc3n2-c2ccccc2)o1 [Compound 13.12, 1-Phenyl-2-(2-phosphono-5-furanyl)benzimidazole] | 196 to 200 °C |
| COc1cccc(-c2cc(F)c(N)c3nc(-c4ccc(P(=O)(O)O)o4)n(CC(C)C)c23)c1 [Compound 12.74, 4-Amino-7-m-methoxyphenyl-5-fluoro-1-isobutyl-2-(2-phosphono-5-furanyl)benzimidazole] | 208 to 212 °C (dec.) |
| CC(C)Cn1c(-c2ccc(P(=O)(O)O)o2)nc2ccc(F)cc21 [Compound 13.27, 6-Fluoro-1-isobutyl-2-(2-phosphono-5-furanyl)benzimidazole] | 202 to 205 °C |

| Compound | melting point |
| --- | --- |
| CCC(CC)Cn1c(-c2ccc(P(=O)(O)O)o2)nc2c(N)c(F)ccc21 [Compound 12.73, 4-Amino-5-fluoro-1-(2-ethylbutyl)-2-(2-phosphono-5-furanyl)benzimidazole] | 178 to 182 °C (dec.) |
| CC(C)Cn1c(-c2ccc(P(=O)(O)O)o2)nc2cc(F)c(N)c(Br)c21 [Compound 13.69, 1-Isobutyl-5-fluoro-6-amino-7-bromo-2-(2-phosphono-5-furanyl)benzimidazole] | 208 to 211 °C |
| O=P(O)(O)c1ccc(-c2nc3ccccc3[nH]2)o1 [Compound 13.1, 2-(2-Phosphono-5-furanyl)benzimidazole] | > 250 °C |
| Cc1c(C)c(C)c2c(nc(-c3ccc(P(=O)(O)O)o3)n2CC2CC2)c1C (hydrate or solvate) [Compound 13.88, 1-Cyclopropylmethyl-4,5,6,7-tetramethyl-2-(2-phosphono-5-furanyl)benzimidazole] | 207 to 208 °C |
| Cl.NCCCCn1c(-c2ccc(P(=O)(O)O)o2)nc2cc(Cl)ccc21 (hydrate or solvate) | 236 to 240 °C (dec.) |
| CC(C)Cn1c(-c2ccc(P(=O)(O)O)o2)nc2cc(F)c(F)c(F)c21 [Compound 12.77, 5,6,7-Trifluoro-1-isobutyl-2-(2-phosphono-5-furanyl)benzimidazole] | 250 to 260 °C |
| CCCc1cc(F)c(N)c2nc(-c3ccc(P(=O)(O)O)o3)n(CC(C)C)c12 [Compound 12.81, 4-Amino-5-fluoro-7-n-propyl-1-isobutyl-2-(2-phosphono-5-furanyl)benzimidazole] | 220 to 230 °C (dec.) |
| CC(C)Cn1c(-c2ccc(P(=O)(O)O)o2)nc2c(N)c(F)cc(CCCCCl)c21 [Compound 12.83, 4-Amino-5-fluoro-7-(4-chlorobutyl)-1-isobutyl-2-(2-phosphono-5-furanyl)benzimidazole] | 210 to 220 °C (dec.) |
| O=C(O)c1ccccc1-n1c(-c2ccc(P(=O)(O)O)o2)nc2cc(Cl)ccc21 [Compound 13.13, 1-(2-Carboxyphenyl)-2-(2-phosphono-5-furanyl)-5-chloro benzimidazole] | 220 to 224 °C |
| CC(C)Cn1c(-c2ccc(P(=O)(O)O)o2)nc2cc(Cl)c(F)cc21 [Compound 13.50, 5-Chloro-6-fluoro-1-isobutyl-2-(2-phosphono-5-furanyl)benzimidazole] | 196 to 199 °C |
| Cc1c(Cl)cc2c(nc(-c3ccc(P(=O)(O)O)o3)n2CCCCBr)c1C [Compound 13.90, 1-(4-Bromobutyl)-4,5-dimethyl-6-chloro-2-(2-phosphono-5-furanyl)benzimidazole] | 212 to 216 °C |
| CC(C)Cn1c(-c2ccc(P(=O)(O)O)o2)nc2ccccc21 [Compound 13.2, 1-Isobutyl-2-(2-phosphono-5-furanyl)benzimidazole] | 200 to 203 °C |
| CCc1cc(F)c(N)c2nc(-c3ccc(P(=O)(O)O)o3)n(CC3CC3)c12 [Compound 12.75, 4-Amino-7-ethyl-5-fluoro-1-cyclopropylmethyl-2-(2-phosphono-5-furanyl)benzimidazole] | 178 to 185 °C |
| CC(C)COc1cccc2c1nc(-c1ccc(P(=O)(O)O)o1)n2CC(C)C [Compound 13.20, 1-Isobutyl-4-isobutyloxy-2-(2-phosphono-5-furanyl)benzimidazole] | 350 °C |
| COc1cccc(-n2c(-c3ccc(P(=O)(O)O)o3)nc3ccc(Cl)cc32)c1 [Compound 13.65, 6-Chloro-1-(3-methoxyphenyl)-2-(2-phosphono-5-furanyl)benzimidazole] | 184 to 185 °C |
| CC(C)n1c(-c2ccc(P(=O)(O)O)o2)nc2cc(Cl)ccc21 [Compound 13.33, 5-Chloro-1-isopropyl-2-(2-phosphono-5-furanyl)benzimidazole] | 192 to 195 °C |
| CC(C)Cn1c(-c2ccc(P(=O)(O)O)o2)nc2c(F)c(F)c(F)cc21 [Compound 12.78, 4,5,6-Trifluoro-1-isobutyl-2-(2-phosphono-5-furanyl)benzimidazole] | 155 to 158 °C |
| CC(C)Cn1c(-c2ccc(P(=O)(O)O)o2)nc2c(N)c(F)cc(-c3ccc(Cl)cc3)c21 [Compound 12.69, 4-Amino-7-p-chlorophenyl-5-fluoro-1-isobutyl-2-(2-phosphono-5-furanyl)benzimidazole] | 235 to 236 °C (dec.) |
| COc1ccc2c(nc(-c3ccc(P(=O)(O)O)o3)n2CC(C)C)c1N [Compound 12.55, 4-Amino-5-methoxy-1-isobutyl-2-(2-phosphono-5-furanyl)benzimidazole] | 212 to 213 °C |
| Cc1cccc2c1nc(-c1ccc(P(=O)(O)O)o1)n2CC(C)C [Compound 13.54, 4-Methyl-1-isobutyl-2-(2-phosphono-5-furanyl)benzimidazole] | 208 to 211 °C |
